# Data taken from ChEMBL document CHEMBL1201862, “PubChem BioAssay data set” (2004).
# Active and inactive are the calls of the source.
# Columns and labels:
# Bcl-2-like protein 10 = Bcl-2-like protein 10 (Homo sapiens, UniProt Q9HD36); test: Bcl-B/TR3 peptide binding disruption – biochemical, fluorescence polarization, FITC-TR3 peptide, selectivity assay for Bfl-1 inhibitor project, primary screen (AID 748);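 note: fluorescence polarization from a fluorescein-labelled TR3 peptide binding purified Bcl-B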
# Chain of Bcl-2-like protein 10 (Q9HD36 whole entry): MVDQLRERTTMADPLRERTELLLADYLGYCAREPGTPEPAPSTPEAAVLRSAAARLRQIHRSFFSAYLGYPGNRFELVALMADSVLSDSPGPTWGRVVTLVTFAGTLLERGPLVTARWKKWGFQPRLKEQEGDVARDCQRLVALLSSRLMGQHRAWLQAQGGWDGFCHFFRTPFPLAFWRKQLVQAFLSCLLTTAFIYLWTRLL
# [1] = molecular target: Intestinal-type alkaline phosphatase (Mus musculus, UniProt P24822); test: PubChem AID 488785; assay type: functional
# Chain of Intestinal-type alkaline phosphatase (Mus musculus, UniProt P24822) (P24822 whole entry): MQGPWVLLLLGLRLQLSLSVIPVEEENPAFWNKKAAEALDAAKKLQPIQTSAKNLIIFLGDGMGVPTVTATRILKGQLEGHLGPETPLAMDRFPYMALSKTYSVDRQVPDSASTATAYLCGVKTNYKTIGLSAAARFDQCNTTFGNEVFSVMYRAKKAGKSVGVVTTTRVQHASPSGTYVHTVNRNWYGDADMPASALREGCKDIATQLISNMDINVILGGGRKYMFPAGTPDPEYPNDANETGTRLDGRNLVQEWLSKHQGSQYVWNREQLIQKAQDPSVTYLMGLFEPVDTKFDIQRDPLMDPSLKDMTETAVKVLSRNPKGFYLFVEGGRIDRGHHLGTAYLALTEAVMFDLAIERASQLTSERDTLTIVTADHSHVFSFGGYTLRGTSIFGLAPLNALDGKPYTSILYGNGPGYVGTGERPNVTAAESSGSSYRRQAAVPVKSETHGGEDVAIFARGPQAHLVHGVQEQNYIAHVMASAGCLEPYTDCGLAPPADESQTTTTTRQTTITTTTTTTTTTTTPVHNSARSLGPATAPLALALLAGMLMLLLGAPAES
# [2] = molecular target: T1, Alkaline phosphatase, tissue-nonspecific isozyme (Homo sapiens, UniProt P05186); test: TNAP enzyme inhibition by screening hits, dose response, selectivity assay for mouse IAP inhibitor project, biochemical, human TNAP, uHTS hits (AID 488906); assay type: functional
# T1 sequence (P05186 whole entry): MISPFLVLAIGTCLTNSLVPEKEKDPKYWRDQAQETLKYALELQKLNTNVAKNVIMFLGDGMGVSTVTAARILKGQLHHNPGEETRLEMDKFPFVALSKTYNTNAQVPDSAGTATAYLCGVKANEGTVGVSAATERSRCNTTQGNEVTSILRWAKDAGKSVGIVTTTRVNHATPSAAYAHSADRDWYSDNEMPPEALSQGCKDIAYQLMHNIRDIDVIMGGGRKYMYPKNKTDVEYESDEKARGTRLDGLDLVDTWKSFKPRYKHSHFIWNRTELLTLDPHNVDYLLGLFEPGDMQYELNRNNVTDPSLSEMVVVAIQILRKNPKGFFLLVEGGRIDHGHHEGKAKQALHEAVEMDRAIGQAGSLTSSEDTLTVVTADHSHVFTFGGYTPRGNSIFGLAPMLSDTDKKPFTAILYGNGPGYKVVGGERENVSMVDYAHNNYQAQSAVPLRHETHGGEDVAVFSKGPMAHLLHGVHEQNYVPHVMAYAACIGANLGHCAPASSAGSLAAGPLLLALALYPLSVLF
# [3] = molecular target: Intestinal-type alkaline phosphatase (Homo sapiens, UniProt P09923); test: activation of human intestinal alkaline phosphatase – biochemical, dose response (AID 488873); assay type: functional
# Chain of Intestinal-type alkaline phosphatase (Homo sapiens, UniProt P09923) (P09923 whole entry): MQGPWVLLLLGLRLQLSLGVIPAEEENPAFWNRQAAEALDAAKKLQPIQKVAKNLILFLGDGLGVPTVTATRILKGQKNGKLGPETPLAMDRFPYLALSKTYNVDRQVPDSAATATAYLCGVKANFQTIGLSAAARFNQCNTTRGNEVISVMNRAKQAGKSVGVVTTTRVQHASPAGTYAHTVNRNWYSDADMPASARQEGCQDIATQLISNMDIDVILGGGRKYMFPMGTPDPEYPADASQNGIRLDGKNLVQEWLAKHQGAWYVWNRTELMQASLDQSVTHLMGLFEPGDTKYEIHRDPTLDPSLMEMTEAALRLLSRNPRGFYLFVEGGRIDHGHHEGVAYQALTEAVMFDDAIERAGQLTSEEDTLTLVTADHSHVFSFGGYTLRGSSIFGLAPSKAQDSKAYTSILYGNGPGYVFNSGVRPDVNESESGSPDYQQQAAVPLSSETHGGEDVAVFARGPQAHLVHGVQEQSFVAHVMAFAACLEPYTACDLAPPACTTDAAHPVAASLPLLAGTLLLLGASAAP
# Vero = test: cells; assay type: functional; settings: Chlorocebus sabaeus
# Beta-galactosidase = Beta-galactosidase (Escherichia coli, UniProt Q8VNN2); assay type: functional
# Chain of Beta-galactosidase (Q8VNN2 whole entry): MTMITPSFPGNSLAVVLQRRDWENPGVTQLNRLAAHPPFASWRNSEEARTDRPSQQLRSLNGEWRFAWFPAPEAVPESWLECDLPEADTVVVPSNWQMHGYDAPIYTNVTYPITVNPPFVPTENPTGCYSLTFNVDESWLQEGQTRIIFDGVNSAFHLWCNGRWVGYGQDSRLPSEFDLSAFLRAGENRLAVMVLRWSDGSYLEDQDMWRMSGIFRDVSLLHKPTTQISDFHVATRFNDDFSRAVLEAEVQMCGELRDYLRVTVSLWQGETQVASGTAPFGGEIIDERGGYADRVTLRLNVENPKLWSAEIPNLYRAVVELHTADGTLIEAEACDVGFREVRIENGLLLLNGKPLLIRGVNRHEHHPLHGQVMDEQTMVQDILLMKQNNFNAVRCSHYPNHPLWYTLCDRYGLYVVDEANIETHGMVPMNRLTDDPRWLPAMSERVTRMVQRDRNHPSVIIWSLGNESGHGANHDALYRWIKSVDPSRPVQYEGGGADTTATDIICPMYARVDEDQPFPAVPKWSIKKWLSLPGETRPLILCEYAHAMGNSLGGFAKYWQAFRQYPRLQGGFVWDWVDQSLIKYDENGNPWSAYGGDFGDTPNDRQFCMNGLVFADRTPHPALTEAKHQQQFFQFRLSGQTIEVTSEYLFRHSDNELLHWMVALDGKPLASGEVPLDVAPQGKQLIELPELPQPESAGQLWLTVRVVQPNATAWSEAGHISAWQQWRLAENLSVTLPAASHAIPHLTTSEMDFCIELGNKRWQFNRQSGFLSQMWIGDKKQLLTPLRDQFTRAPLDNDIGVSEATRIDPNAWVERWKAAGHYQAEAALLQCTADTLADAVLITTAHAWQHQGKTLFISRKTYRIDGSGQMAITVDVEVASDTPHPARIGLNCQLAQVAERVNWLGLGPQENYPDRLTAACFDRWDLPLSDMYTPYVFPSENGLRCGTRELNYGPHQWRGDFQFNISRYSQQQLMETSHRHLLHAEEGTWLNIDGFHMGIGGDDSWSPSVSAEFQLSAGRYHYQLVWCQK
# [4] = molecular target: T2, Kappa-type opioid receptor (Homo sapiens, UniProt P41145); assay type: functional
# T2 sequence (P41145 whole entry): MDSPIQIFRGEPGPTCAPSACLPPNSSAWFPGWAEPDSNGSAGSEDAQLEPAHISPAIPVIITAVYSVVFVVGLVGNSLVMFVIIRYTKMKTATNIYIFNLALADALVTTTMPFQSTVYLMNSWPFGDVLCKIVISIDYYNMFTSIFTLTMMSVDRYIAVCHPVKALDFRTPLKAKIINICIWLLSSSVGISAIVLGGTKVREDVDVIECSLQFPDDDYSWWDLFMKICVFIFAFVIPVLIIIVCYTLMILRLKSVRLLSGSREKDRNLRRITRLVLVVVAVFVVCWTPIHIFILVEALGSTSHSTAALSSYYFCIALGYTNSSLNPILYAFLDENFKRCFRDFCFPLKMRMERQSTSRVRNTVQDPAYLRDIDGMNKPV
# [5] = molecular target: T3, Rac GTPase-activating protein 1 (Homo sapiens, UniProt Q9H0H5); test: blockers of MgcRacGAP-driven Rac1 GTP hydrolysis – biochemical, ADP Hunter fluorescence, primary and confirmatory, confirmation (AID 624330); assay type: functional
# T3 sequence (Q9H0H5 whole entry): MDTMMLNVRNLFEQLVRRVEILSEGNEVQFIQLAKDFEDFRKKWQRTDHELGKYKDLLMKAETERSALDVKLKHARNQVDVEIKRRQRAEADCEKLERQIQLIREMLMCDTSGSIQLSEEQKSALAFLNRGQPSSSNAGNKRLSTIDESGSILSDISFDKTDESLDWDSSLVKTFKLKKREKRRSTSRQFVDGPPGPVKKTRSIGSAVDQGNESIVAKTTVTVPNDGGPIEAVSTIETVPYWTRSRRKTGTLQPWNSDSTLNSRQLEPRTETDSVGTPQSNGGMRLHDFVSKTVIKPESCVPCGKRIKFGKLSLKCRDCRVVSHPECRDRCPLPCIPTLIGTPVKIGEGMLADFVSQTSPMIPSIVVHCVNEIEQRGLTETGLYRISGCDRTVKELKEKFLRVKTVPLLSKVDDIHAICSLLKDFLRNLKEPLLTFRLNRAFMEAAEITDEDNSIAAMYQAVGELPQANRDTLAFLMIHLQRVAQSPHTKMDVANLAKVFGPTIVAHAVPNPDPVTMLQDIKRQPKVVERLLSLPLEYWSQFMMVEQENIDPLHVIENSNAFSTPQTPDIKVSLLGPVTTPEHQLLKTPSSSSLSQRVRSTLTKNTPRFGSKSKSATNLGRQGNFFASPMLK
# [6] = molecular target: T2, Kappa-type opioid receptor; assay type: functional; remark: listed apart in the source
# HeLa = test: ATP-based viability loss in HeLa cells – cell-based, CellTiter-Glo luminescence, cherry-pick samples, cytotoxicity control for MITF activator project, dose response (AID 540259); assay type: functional; settings: Homo sapiens
# [7] = viability loss in HeLa cells – cytotoxicity control for MgcRacGAP inhibitor project, dose response (AID 624300); assay type: functional
# Wee1-like protein kinase = Wee1-like protein kinase (Homo sapiens, UniProt P30291); test: HeLa cell cycle G2/M accumulation – FACS, mechanism study for Wee1 degradation inhibitor project, late-stage follow-up, panel member Wee1 Degradation (AID 2088)
# Chain of Wee1-like protein kinase (P30291 whole entry): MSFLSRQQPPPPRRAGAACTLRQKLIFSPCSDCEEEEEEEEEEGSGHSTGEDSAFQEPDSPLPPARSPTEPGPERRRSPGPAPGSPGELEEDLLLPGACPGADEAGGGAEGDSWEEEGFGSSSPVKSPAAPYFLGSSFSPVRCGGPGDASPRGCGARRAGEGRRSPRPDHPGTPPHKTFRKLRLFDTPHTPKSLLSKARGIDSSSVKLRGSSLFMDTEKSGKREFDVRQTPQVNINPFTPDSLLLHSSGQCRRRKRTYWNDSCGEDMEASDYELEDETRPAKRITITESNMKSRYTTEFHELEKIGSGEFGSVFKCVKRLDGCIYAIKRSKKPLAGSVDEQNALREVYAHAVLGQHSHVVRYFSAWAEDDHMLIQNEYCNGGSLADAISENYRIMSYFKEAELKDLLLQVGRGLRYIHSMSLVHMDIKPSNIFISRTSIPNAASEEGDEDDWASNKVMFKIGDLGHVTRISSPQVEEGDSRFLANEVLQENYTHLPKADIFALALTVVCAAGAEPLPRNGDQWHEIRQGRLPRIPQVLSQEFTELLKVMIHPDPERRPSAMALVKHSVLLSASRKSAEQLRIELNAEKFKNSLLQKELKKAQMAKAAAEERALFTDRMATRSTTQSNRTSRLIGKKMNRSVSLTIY
# [8] = molecular target: G2/mitotic-specific cyclin-B1 (Homo sapiens, UniProt P14635); test: HeLa cell cycle G2/M accumulation – FACS, mechanism study for Wee1 degradation inhibitor project, late-stage follow-up, panel member Cyclin B Degradation (AID 2088)
# Chain of G2/mitotic-specific cyclin-B1 (P14635 whole entry): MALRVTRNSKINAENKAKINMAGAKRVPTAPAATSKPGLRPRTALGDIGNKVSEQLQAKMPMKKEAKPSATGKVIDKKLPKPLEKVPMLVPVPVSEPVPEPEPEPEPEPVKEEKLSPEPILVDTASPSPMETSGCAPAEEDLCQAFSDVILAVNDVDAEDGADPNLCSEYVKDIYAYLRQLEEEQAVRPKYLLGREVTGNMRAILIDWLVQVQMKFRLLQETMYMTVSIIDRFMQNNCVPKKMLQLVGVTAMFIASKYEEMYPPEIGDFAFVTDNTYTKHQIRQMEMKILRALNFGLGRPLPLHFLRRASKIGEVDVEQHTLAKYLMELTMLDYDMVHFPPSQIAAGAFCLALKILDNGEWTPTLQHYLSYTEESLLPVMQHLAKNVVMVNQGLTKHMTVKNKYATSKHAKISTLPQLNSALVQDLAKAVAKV
# Hexokinase-1 = Hexokinase-1 (Homo sapiens, UniProt P19367); test: HK1 enzyme activation by HKDC1 hits – biochemical, selectivity assay for HKDC1 activator project, dose response (AID 504762); assay type: functional
# Chain of Hexokinase-1 (P19367 whole entry): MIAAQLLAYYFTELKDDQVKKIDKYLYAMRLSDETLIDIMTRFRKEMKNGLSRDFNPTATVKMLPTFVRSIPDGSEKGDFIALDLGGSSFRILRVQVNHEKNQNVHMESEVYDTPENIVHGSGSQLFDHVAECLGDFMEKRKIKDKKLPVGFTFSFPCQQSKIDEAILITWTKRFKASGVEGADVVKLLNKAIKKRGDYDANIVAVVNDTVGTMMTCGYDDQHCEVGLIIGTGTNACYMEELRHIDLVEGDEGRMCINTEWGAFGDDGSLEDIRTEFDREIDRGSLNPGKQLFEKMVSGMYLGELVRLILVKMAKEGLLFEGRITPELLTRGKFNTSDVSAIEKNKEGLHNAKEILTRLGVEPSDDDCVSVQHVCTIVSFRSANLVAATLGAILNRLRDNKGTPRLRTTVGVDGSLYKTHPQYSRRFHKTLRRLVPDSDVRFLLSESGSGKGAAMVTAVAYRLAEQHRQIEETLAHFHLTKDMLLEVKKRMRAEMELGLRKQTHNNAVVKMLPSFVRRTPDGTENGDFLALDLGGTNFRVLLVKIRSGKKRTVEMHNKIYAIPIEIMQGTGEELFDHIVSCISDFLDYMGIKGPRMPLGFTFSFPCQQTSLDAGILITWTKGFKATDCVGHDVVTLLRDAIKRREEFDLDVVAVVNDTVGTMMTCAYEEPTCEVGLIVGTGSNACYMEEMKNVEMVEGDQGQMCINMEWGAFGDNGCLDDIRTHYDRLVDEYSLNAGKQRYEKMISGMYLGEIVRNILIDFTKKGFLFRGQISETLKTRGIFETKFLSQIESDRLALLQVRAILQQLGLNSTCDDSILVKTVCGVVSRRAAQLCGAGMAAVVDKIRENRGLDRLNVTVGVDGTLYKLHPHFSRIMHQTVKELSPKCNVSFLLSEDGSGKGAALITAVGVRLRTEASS
# [9] = viability loss in THP-1 monocytes – THP-1 cells, cytotoxicity control for Vif-APOBEC3G degradation inhibitor project, dose response (AID 1117359); assay type: functional; settings: THP-1
# Hexokinase HKDC1 = molecular target: T4, Hexokinase HKDC1 (Homo sapiens, UniProt Q2TB90); test: activation of HKDC1 glucose phosphorylation – biochemical, W721R variant, dose response (AID 504730); assay type: functional
# T4 sequence (Q2TB90 whole entry): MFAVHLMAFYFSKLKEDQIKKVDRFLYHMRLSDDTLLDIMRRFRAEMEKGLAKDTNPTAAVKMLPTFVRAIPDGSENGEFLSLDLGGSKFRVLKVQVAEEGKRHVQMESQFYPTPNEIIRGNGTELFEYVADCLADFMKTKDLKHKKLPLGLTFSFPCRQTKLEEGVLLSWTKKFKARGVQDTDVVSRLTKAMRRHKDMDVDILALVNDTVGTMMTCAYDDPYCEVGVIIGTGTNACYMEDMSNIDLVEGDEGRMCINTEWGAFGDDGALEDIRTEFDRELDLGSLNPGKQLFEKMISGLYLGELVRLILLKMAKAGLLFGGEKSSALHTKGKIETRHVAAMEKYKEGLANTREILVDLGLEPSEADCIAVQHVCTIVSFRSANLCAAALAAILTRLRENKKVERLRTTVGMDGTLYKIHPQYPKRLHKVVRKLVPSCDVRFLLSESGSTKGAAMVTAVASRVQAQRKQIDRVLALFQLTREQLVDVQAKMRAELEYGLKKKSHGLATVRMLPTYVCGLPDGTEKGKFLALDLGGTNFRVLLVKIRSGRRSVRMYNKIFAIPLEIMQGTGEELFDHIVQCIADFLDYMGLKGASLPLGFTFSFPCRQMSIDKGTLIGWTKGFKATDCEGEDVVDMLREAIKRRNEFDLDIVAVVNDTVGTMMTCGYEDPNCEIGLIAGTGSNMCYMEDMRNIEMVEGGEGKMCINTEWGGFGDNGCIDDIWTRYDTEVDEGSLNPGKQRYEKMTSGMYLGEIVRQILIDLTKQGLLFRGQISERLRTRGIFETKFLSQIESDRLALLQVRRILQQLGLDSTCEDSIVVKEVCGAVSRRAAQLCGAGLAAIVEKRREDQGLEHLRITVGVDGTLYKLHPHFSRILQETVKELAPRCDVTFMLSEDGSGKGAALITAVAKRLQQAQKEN
# Nonstructural protein 1 = Nonstructural protein 1 (Influenza A virus, UniProt Q194T2); assay type: functional, Influenza A virus (A/California/07/2009(H1N1))
# Chain of Nonstructural protein 1 (Q194T2 whole entry): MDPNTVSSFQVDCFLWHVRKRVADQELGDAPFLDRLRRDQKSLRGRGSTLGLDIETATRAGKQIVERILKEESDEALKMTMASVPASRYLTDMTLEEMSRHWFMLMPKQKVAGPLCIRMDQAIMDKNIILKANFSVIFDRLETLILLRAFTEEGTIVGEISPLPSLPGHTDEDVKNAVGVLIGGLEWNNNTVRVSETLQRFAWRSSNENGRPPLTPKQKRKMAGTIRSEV
# [10] = blockers of SFLLRN-triggered platelet ATP secretion – cell-based, human platelets, luminescence, dry powder, dose response (AID 493100); assay type: functional
structure (smiles),measurement,setting,value
Cc1ccc2nc3sc(-c4nnc(-c5ccccc5[N+](=O)[O-])o4)c(N)c3cc2c1,IC50,Bcl-2-like protein 10,> 100 µM (inactive)
Cc1c(CN2CCC(C(=O)Nc3cccc(-c4cccc(Cl)c4)c3)CC2)cnn1C,IC50,[1],4.27 µM (active)
same,IC50,[2],> 100 µM (inactive)
same,EC50,[3],37.2 µM (active)
same,CC50,Vero,16.1 µM (active)
COc1cc(/C=C2\SC(=S)N(Nc3ccccc3)C2=O)ccc1O,EC50,Beta-galactosidase,9.67 µM (active)
same,IC50,[4],8.41 µM (active)
same,IC50,[5],55.7 µM (active)
same,IC50,[6],> 32 µM
same,AC50,HeLa,41 µM (active)
same,CC50,[7],100 µM (active)
c1cc2[nH]c3c(c2c2nonc12)CCCC3,EC50,Wee1-like protein kinase,> 49.7 µM (inactive)
same,EC50,[8],> 49.7 µM (inactive)
CC(=NNC(=S)SCc1ccccc1)c1ccccn1,EC50,Hexokinase-1,> 80 µM (inactive)
same,CC50,[9],< 0.08 µM (active)
same,EC50,Hexokinase HKDC1,1.61 µM (active)
same,IC50,Nonstructural protein 1,12.2 µM (active)
CCCC(=O)Nc1cccc(NC(=O)c2ccccc2Cl)c1,AC50,[10],6.09 µM (active)
